In patent publication US5994387A, “Pyrrolidinyl methyl indole salt” (Pfizer Inc., priority 1995, dated 1999):
Like-named read-outs stand apart in the source and are kept apart here.

What was measured:
Format in all cases: physicochemical
[1] = Saturated solubility of free base and fumarate salt in water (HPLC); conditions: for solubility at 16 h: saturated solubility in water (MilliQ), 16 hours at room temperature; for Solubility in words: water, qualitative statement, fumarate
Method: For both the free base and fumarate salt, approximately 50 mg of solid bulk material was accurately weighed into a 1.5 mL plastic "Eppendorf" tube (Sigma). 0.3 mL of water (MilliQ) was then added to the tubes. The tubes were then vortex mixed at 1,300 rpm ("LKB") for 16 hours at room temperature. The supematant was separated from undissolved material by centrifugation at 13,000 rpm for 20 minutes ("Heraeus Biofuge 13"), then diluted and assayed for Compound (I) by HPLC. This assay used a mobile phase of acetonitrile (20%), water (80%) and trifluoroacetic acid (0.1%) and a 150×4.2 mm "Zorbax SB CN" column at 40° C. with U.V. detection at 220 nm.

[2] = Hygroscopicity: moisture uptake in moisture microbalance; conditions: for Hygroscopicity at 30° C. and 90% RH: moisture uptake; for Hygroscopicity in words: qualitative statement, fumarate
Method: Approximately 10 mg of each of the free base and fumarate salts of Compound (I) were exposed to 8 different relative humidities (RHs) between 0 and 94% at 30° C. in the Surface Measurement Systems Ltd moisture microbalance. The samples were allowed to reach equilibrium at each of these RHs and the change in weight from the initial value when the sample was first placed in the balance was calculated. The data was used to construct the moisture sorption isotherms for the materials. The hygroscopicity of the materials was compared by calculating the moisture uptake at 90%RH, which was as follows: […]

[3] = Solid-state (bulk) stability after 9 weeks storage, HPLC; design: key to % Degradation (% peak area @ 50° C.-% peak area @ 4° C.): --: No peaks present at this relative retention time; conditions: for degraded at 1512 h: solid state, read-out: % Degradation (% peak area @ 50° C.-% peak area @ 4° C.); for Solid state stability in words: qualitative statement, fumarate
Method: Approximately 1 mg of each of the free base, hydrochloride, hydrobromide and fumarate salts of Compound (I) were accurately weighed into small glass vials. These were stored for 9 weeks at each of 4° C./ambient humidity, 40° C./ambient humidity, 40° C./75% RH and 50° C./ambient humidity. The samples were then assayed using the following stability indicating HPLC method. A mobile phase consisting of 0.05 M potassium dihydrogen orthophosphate adjusted to pH2 with phosphoric acid (90%) and acetonitrile (far UV) (10%), was pumped through a "Zorbax SB-CN" 150×4.6 mm column (40° C.) at a flow rate of 1 ml/min with UV detection at 225 nm.
The samples with the exception of the free base were prepared by dissolving them in the mobile phase in a 25 ml volumetric flask. The free base was dissolved in a few drops of methanol before diluting with the mobile phase.
The stability of the samples was quantified by investigating the appearance of new peaks in the chromatograms of stored samples and the increase in peaks present compared to control samples stored at 4° C.

[4] = Solubility in the 90% PEG 400 / 10% water formulation (observation); conditions: 1 mg/mL in 90% PEG 400 and 10% water
Source text: (§1) Soft gelatin capsule formulations are an attractive delivery system for Compound (I) as they improve in vivo dissolution and content uniformity on manufacture. The compound (I) can be formulated as a liquid fill soft gelatin capsule. However, oxidative degradation often limits the shelf life of such formulations. PEG 400 is representative of a typical liquid fill diluent used for such a purpose. The following study was designed to determine whether oxidative degradation occurs with Compound (I) in such a formulation, and whether the fumarate salt provides protection against oxidative degradation. 1 mg/mL solutions of Compound (I) as the free base, Compound (I) as the hydrochloride salt and Compound (I) as the fumarate salt were prepared in 90% PEG 400 (BDH) and 10% water (Milli-Q). 10% water was added to the formulations to mimic the ingress of water from the soft gelatin capsule shell. […] However, for ease of solution preparation, the hydrochloride salt was used instead.

[5] = Oxidative stability in 90% PEG 400 with and without hydrogen peroxide; conditions: for Stability to oxidative degradation, in words: qualitative statement, fumarate
Source text: as §1
Hydrogen peroxide (BDH) to a final concentration of 0.3% w/w was added to the formulations to provide an oxidative stress. A control formulation without hydrogen peroxide was also used in the study. 1 mL of each formulation was sealed into 2 mL HPLC vials ("Cromacol") and placed in a thermostated oven at 40° C. Samples were taken at 1.5 and 3 days and stored frozen (-20° C.) prior to assay. The samples were diluted and analysed using the stability indicating HPLC assay as described above. Degradation was expressed as % Compound (I) remaining.

[6] = relative retention time 0.59, 9 weeks at 50° C.
[7] = relative retention time 0.77, 9 weeks at 50° C.
[8] = relative retention time 0.85, 9 weeks at 50° C.
[9] = relative retention time 0.40, 9 weeks at 50° C.
[10] = relative retention time 0.60, 9 weeks at 50° C.
[11] = relative retention time 0.91, 9 weeks at 50° C.
[12] = relative retention time 1.66, 9 weeks at 50° C.
[13] = relative retention time 1.93, 9 weeks at 50° C.

## CNS(=O)(=O)Cc1ccc2[nH]cc(C[C@H]3CCCN3C)c2c1 [Free base, (R)-5-(methylaminosulphonylmethyl)-3-(N-methylpyrrolidin-2-ylmethyl)-1H-indole]
[1]
  solubility at 16 h: 0.12 mg/mL
[2]
  Hygroscopicity at 30° C. and 90% RH: 0.2 % w/w
[3]; 9 weeks at 50° C.
  New drug related peaks: 4 new drug related peaks
  Solid-state degradation in words: measurable degradation
[3]; all peaks, 9 weeks at 50° C. vs 4° C., 90720 min
  total increase in % peak area: 0.32%
[3]; [6]
  % Degradation (% peak area @ 50° C.-% peak area @ 4° C.): --
[3]; [7]
  % Degradation (% peak area @ 50° C.-% peak area @ 4° C.): --
[3]; [8]
  % Degradation (% peak area @ 50° C.-% peak area @ 4° C.): --
[3]; [9]
  degraded at 1512 h: 0.05%
[3]; [10]
  degraded at 1512 h: 0.01%
[3]; [11]
  degraded at 1512 h: 0.02%
[3]; [12]
  degraded at 1512 h: 0.17%
[3]; [13]
  degraded at 1512 h: 0.03%
[4]
  Solubility in the PEG 400 formulation: not very soluble

## CNS(=O)(=O)Cc1ccc2[nH]cc(C[C@H]3CCCN3C)c2c1.O=C(O)/C=C/C(=O)O [Fumarate salt, (R)-5-(methylaminosulphonylmethyl)-3-(N-methylpyrrolidin-2-ylmethyl)-1H-indole fumarate]
[1]
  solubility at 16 h: 67.5 mg/mL
  Solubility in words: Increased solubility
[1]; listed as fumarate salt of (I)
  Solubility in words: excellent solubility
[2]
  Hygroscopicity at 30° C. and 90% RH: 0.2 % w/w
  Hygroscopicity in words: not accompanied by increased hygroscopicity
[2]; listed as fumarate salt of (I)
  Hygroscopicity in words: non-hygroscopic
[5]; 90% PEG 400, 40° C., both time points (1.5 and 3 days)
  Degradation rate compared with the hydrochloride: significantly lower (analysis of variance p<0.001) than the hydrochloride at both time points
[5]
  Stability to oxidative degradation, in words: significant protection against degradation in the formulation
[5]; listed as fumarate salt of (I)
  Stability to oxidative degradation, in words: unexpectedly improved stability to oxidative degradation
[3]; 9 weeks at 50° C.
  Solid-state degradation in words: had not degraded at all after 9 weeks 50 °C
[3]
  Solid state stability in words: most stable in the solid state
[3]; listed as fumarate salt of (I)
  Solid state stability in words: excellent solubility and solid state stability
[3]; [9]
  % Degradation (% peak area @ 50° C.-% peak area @ 4° C.): --
[3]; [10]
  % Degradation (% peak area @ 50° C.-% peak area @ 4° C.): --
[3]; [7]
  % Degradation (% peak area @ 50° C.-% peak area @ 4° C.): --
[3]; [8]
  % Degradation (% peak area @ 50° C.-% peak area @ 4° C.): --
[3]; [11]
  % Degradation (% peak area @ 50° C.-% peak area @ 4° C.): --
[3]; [12]
  % Degradation (% peak area @ 50° C.-% peak area @ 4° C.): --
[3]; [13]
  % Degradation (% peak area @ 50° C.-% peak area @ 4° C.): --
[3]; [6]
  degraded at 1512 h: 0%
